Measurements from US10099993B2, “Metabotropic glutamate receptor positive allosteric modulators (PAMS) and uses thereof” (Sanford-Burnham Medical Research Institute, priority 2014, dated 2018).
Values belong to the compound of their own block, whether it stands above or below them.

How the values were obtained:
[1] = system: cocaine-maintained responding in rats; details: previously shown (Jin, X. et al. 2010); cited from earlier work
mGlu3 [2] = molecular target: T1, mGlu3 (Rattus norvegicus (Rat), UniProt P31422); test: TREx293 mGlu3 Gα15 calcium assay; format: cell-based; details: presence of an EC20 of glutamate, 20 ng/mL Tet for 20 h
Description: In order to generate a tetracycline (Tet)-inducible rat mGlu3 stable cell line to be used for a calcium mobilization assay, TREx293 cells (Invitrogen) were transfected with mouse Gα15-pCMV6 plasmid (Origene) using Fugene6 (Promega). The cells were selected for Gα15 expression with 1 mg/mL G418 in the presence of 10 μg/ml blasticidin to maintain Tet Repressor expression. Two weeks after the selection, polyclonal TREx293 Gα15 cells were obtained. The entire coding sequence of rat mGlu3 was amplified by polymerase chain reaction (PCR) and cloned into the Tet-inducible expression plasmid pcDNA5/TO (Invitrogen). Rat mGlu3-pcDNA5/TO was transfected into TREx293 Gα15 cells and selected for mGlu3 expression with 200 μg/ml hygromycin in the presence of G418 and blasticidin.
For mGlu3 the TREx tetracycline-inducible system (Invitrogen) was utilized. […] In the absence of Tet, no measurable expression of mGlu3 is detected either by Western blot (FIG. 3A) or by functional response to calcium mobilization (FIG. 3B). […] Data were analyzed using nonlinear regression. Data were obtained from three separate experiments performed in triplicate, normalized to the response to 100 μM glutamate in each experiment, and are expressed as the mean±SEM.

[3] = system: food-maintained responding in rats; details: previously shown (Jin, X. et al. 2010); cited from earlier work
mGlu1 = mGlu1 (Rattus norvegicus (Rat), UniProt P23385); test: mGlu1 calcium assay; format: cell-based; details: full agonist concentration-response ± 10 μM compound
Sequence of mGlu1 (P23385 19-1199): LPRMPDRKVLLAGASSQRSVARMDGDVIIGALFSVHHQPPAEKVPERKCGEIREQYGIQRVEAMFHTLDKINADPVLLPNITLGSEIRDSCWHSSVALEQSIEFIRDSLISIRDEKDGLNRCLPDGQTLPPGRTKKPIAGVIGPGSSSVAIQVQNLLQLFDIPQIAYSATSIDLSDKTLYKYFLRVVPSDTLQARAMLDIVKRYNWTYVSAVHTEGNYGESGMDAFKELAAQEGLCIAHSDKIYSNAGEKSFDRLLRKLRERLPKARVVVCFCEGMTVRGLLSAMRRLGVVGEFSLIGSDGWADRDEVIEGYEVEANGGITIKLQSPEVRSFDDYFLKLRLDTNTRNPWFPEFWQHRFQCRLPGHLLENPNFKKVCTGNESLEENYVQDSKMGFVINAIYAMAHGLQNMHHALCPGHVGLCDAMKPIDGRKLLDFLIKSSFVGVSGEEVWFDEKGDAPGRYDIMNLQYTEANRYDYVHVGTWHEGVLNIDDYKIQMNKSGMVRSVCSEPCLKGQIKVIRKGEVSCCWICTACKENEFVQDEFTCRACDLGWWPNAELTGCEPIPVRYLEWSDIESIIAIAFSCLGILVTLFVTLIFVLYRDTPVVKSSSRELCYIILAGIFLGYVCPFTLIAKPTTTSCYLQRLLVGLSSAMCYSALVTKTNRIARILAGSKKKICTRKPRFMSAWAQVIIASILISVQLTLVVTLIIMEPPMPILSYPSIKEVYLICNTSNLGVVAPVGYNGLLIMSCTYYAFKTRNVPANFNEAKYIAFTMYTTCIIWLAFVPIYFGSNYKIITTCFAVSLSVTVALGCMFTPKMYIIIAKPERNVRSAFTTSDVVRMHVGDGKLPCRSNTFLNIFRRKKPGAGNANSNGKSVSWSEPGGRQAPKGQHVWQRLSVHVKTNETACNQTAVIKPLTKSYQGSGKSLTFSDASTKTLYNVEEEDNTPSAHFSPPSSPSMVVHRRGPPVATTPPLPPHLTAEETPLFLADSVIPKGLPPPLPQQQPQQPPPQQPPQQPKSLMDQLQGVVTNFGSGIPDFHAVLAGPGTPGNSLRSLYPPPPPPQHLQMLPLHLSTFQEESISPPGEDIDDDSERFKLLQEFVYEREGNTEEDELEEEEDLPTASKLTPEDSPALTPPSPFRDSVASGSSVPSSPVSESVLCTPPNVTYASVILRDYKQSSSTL

mGlu4 = mGlu4 (Rattus norvegicus (Rat), UniProt P31423); test: mGlu4 GIRK thallium flux assay; format: cell-based; details: full agonist concentration-response ± 10 μM compound
Sequence of mGlu4 (P31423 33-912): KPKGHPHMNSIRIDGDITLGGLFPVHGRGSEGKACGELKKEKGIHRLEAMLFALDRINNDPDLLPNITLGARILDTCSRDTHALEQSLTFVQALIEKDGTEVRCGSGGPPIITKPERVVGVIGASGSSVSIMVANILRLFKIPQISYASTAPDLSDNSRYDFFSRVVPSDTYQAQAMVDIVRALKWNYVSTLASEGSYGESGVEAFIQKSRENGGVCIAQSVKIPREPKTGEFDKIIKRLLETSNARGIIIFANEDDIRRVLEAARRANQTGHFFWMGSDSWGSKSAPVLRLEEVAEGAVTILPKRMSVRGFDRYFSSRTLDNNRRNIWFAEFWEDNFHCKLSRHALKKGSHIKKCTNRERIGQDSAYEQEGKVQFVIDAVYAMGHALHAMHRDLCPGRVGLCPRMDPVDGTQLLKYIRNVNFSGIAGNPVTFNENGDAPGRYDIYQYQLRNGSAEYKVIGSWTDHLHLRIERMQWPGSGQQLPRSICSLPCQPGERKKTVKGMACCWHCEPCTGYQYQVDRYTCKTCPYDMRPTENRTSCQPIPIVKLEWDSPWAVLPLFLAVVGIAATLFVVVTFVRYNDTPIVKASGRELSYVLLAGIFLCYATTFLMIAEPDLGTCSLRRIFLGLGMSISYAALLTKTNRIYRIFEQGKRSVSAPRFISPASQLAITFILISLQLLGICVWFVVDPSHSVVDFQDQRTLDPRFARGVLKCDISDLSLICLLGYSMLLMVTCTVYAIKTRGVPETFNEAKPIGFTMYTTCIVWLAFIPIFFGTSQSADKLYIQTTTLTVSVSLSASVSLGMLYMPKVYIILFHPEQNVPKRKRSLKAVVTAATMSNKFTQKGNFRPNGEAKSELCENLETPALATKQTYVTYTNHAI

mGlu7 = mGlu7 (Rattus norvegicus (Rat), UniProt P35400); test: mGlu7 GIRK thallium flux assay; format: cell-based; details: full L-AP4 concentration-response ± 10 μM compound
mGlu5 = mGlu5 (Rattus norvegicus (Rat), UniProt P31424); test: mGlu5 calcium assay; format: cell-based; details: full agonist concentration-response ± 10 μM compound
[4] = In vivo PK in rats, p.o. administration; parameters: species or system rat; details: 20 mg/kg; for Plasma: harvested at or near the Tmax; for Kp / Tmax / Cmax: rat, po; for Kp: brain and plasma, read-out: Brain:Plasma ratio; for Tmax / Cmax: plasma
mGlu3 [5] = molecular target: T1, mGlu3; test: mGlu3 GIRK thallium flux assay; details: for General activity at mGlu3: full agonist concentration-response ± 10 μM compound; for EC50: read-out: mGlu3 PAM EC50, test compound, then EC20 glutamate […] later in the presence of thallium; for EC50 / mGlu3 PAM Max: PAM mode, mean ± SEM; for Emax: read-out: mGlu3 PAM Max; for mGlu3 PAM Max: % Glutamate Max;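 on all read-outs here: kinetic fluorescence slope read shortly after thallium plus agonist addition, scaled between vehicle and maximal agonist control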
mGlu6 = mGlu6 (Rattus norvegicus (Rat), UniProt P35349); test: mGlu6 GIRK thallium flux assay; format: cell-based; details: full agonist concentration-response ± 10 μM compound
Sequence of mGlu6 (P35349 24-871): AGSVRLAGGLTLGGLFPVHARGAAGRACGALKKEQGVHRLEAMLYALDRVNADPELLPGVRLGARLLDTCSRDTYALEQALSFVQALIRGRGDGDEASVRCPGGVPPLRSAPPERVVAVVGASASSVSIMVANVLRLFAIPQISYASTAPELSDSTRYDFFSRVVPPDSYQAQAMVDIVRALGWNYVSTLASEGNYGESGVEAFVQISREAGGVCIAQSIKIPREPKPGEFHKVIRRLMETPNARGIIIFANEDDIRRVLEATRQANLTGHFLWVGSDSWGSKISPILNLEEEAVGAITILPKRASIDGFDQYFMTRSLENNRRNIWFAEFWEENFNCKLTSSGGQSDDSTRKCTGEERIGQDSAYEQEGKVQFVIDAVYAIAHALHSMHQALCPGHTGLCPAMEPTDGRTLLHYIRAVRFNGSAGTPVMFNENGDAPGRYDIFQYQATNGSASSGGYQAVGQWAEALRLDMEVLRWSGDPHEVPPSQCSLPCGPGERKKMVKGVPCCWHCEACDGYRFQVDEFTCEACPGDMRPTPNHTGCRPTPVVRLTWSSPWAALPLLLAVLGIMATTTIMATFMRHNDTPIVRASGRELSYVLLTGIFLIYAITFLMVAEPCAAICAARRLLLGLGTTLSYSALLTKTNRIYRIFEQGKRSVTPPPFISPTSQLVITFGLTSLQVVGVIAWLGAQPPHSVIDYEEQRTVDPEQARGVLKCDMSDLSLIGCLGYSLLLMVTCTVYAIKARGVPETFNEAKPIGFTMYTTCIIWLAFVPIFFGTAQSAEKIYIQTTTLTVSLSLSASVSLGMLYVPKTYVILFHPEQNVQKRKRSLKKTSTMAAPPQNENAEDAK

mGlu8 = mGlu8 (Rattus norvegicus (Rat), UniProt P70579); test: mGlu8 GIRK thallium flux assay; format: cell-based; details: full agonist concentration-response ± 10 μM compound
Sequence of mGlu8 (P70579 34-908): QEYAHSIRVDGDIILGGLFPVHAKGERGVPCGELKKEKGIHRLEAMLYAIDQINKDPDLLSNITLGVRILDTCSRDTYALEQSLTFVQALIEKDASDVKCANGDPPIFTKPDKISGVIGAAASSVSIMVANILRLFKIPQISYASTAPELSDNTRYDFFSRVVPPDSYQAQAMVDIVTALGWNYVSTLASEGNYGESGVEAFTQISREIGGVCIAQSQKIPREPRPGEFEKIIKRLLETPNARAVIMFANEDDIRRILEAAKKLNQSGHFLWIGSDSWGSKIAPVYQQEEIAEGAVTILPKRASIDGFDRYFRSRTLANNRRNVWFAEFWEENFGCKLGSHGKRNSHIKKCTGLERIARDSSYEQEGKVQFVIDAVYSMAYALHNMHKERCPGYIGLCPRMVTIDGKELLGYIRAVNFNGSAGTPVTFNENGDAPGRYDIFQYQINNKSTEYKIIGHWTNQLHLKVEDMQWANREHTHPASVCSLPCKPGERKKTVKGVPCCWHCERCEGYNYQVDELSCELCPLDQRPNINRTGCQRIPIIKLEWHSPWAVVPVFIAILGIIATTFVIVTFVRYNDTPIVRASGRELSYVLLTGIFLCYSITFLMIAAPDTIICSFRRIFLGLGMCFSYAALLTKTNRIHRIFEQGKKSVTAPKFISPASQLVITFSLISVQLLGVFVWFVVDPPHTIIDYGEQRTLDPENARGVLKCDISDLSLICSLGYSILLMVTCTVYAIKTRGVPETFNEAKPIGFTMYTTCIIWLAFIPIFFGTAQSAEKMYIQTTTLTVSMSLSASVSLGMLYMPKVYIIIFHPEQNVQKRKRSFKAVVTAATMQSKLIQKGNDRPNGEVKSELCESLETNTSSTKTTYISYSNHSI

[6] = In vivo PK in rats, i.v. administration; parameters: species or system rat; details: 2 mg/kg; for Cmax / Vd: rat, iv, plasma; for Vd: read-out: Vdss
mGlu2 = mGlu2 (Rattus norvegicus (Rat), UniProt P31421); test: mGlu2 GIRK thallium flux assay; details: for General activity at mGlu2: full agonist concentration-response ± 10 μM compound; for EC50: read-out: mGlu2 PAM EC50, test compound, then EC20 glutamate […] later in the presence of thallium; for EC50 / mGlu2 PAM Max: PAM mode, mean ± SEM, at least three experiments; for Emax: read-out: mGlu2 PAM Max; for mGlu2 PAM Max: % Glutamate Max;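 on all read-outs here: Cell-based assay, rate of fluorescence rise right after thallium plus agonist addition read on a kinetic imaging plate reader, normalized to vehicle and maximal agonist control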
Sequence of mGlu2 (P31421 19-872): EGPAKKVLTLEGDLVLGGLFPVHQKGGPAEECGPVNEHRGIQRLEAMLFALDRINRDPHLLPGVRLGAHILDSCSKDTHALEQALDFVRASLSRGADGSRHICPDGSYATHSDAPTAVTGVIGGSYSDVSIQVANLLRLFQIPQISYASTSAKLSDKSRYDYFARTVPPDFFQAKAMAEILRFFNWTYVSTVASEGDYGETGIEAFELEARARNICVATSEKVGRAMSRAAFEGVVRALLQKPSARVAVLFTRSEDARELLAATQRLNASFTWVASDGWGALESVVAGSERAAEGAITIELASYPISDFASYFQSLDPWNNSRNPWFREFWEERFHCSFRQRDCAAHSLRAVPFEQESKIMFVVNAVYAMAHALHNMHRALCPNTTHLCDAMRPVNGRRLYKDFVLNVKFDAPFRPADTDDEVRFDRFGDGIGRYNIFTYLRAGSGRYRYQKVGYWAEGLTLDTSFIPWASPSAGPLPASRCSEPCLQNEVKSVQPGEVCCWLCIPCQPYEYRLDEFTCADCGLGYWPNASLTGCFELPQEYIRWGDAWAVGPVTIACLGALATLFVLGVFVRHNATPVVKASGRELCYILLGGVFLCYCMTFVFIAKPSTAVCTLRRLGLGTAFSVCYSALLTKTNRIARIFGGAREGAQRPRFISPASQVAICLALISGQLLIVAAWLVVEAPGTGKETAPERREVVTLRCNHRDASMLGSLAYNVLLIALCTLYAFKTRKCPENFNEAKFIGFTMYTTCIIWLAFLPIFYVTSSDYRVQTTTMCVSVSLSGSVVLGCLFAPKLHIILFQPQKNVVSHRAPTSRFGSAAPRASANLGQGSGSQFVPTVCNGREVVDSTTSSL

Compound: Cc1c(OCc2cccc(-c3ccc(C(=O)O)cc3)c2)cc2c(c1C)C(=O)C(C1CCCC1)C2 (stereo not drawn) [BINA]
- cocaine-maintained responding [1]: decreased only cocaine-maintained responding
- activity in TREx293 mGlu3 Gα15 calcium assay (mGlu3 [2]): inactive
- food-maintained responding [3]: no effect on food-maintained responding

Compound: Cc1c(OCCCCOc2ccc(C(=O)O)cc2)ccc(C(=O)CC(C)C)c1O [Compound 20, 4-(4-(3-Hydroxy-2-methyl-4-(3-methylbutanoyl)phenoxy)butoxy)benzoic acid]
- General activity at mGlu1 (mGlu1): inactive^b
- General activity at mGlu4 (mGlu4): inactive^b
- General activity at mGlu7 (mGlu7): inactive^b
- General activity at mGlu5 (mGlu5): inactive^b
- AUC(0→t) [4]: 544.8 ± 75.4 (μmol/L) min
- F, oral bioavailability [4]: 23.5%
- Plasma [4]: 5.29 ± 1.98 µM
- Kp [4]: 0.2 ± 0.03
- Tmax [4]: 2.25 h
- Cmax [4]: 2.57 ± 0.45 µM
- General activity at mGlu3 (mGlu3 [5]): PAM
- General activity at mGlu6 (mGlu6): inactive^b
- General activity at mGlu8 (mGlu8): inactive^b
- AUC(0→t) [6]: 231.7 ± 42.12 (μmol/L)*min
- Cmax [6]: 5 ± 0.6 µM
- Vd [6]: 0.81 ± 0.14 L/kg

Compound: Cc1c(OCCCCOc2cccc(C(=O)O)c2)ccc(C(=O)CC2CCCC2)c1O [Compound 25, 3-(4-(4-(2-Cyclopentylacetyl)-3-hydroxy-2-methylphenoxy)butoxy)benzoic acid]
- General activity at mGlu1 (mGlu1): inactive^b
- General activity at mGlu4 (mGlu4): inactive^b
- General activity at mGlu7 (mGlu7): inactive^b
- General activity at mGlu5 (mGlu5): inactive^b
- General activity at mGlu3 (mGlu3 [5]): PAM
- Emin, minimal response of the concentration-response of agonist (mGlu3 [5]; mGlu3, 10 μM compound): Emin = 6%
- General activity at mGlu6 (mGlu6): inactive^b
- General activity at mGlu8 (mGlu8): inactive^b
- General activity at mGlu2 (mGlu2): Ago-PAM
- Emin, minimal response of the concentration-response of agonist (mGlu2; mGlu2, 10 μM compound): Emin = 45%

Compound: Cc1c(OCCCCOc2ccc(C(=O)O)c(Cl)c2)ccc(C(=O)CC2CCCC2)c1O [Compound 33, 2-Chloro-4-(4-(4-(2-cyclopentylacetyl)-3-hydroxy-2-methylphenoxy)butoxy)benzoic acid]
- General activity at mGlu1 (mGlu1): inactive^b
- General activity at mGlu4 (mGlu4): inactive^b
- General activity at mGlu7 (mGlu7): inactive^b
- General activity at mGlu5 (mGlu5): inactive^b
- General activity at mGlu6 (mGlu6): inactive^b
- General activity at mGlu8 (mGlu8): inactive^b
- General activity at mGlu2 (mGlu2): Ago-PAM

Compound: Cc1c(OCCCCOc2ccc(F)c(C(=O)O)c2)ccc(C(=O)CC(C)C)c1O [Compound 36, 2-Fluoro-5-(4-(3-hydroxy-2-methyl-4-(3-methylbutanoyl)phenoxy)butoxy)benzoic acid]
- AUC(0→t) [4]: 720.5 ± 283.4 (μmol/L) min
- F, oral bioavailability [4]: 58.2%
- Plasma [4]: 4.23 ± 1.19 µM
- Kp [4]: 0.06 ± 0.03
- Tmax [4]: 0.5 h
- Cmax [4]: 12.5 µM
- AUC(0→t) [6]: 123.7 ± 7.7 (μmol/L)*min
- Cmax [6]: 3.52 ± 0.13 µM
- Vd [6]: 0.89 ± 0.03 L/kg

Compound: COc1ccc(C(=O)O)cc1OCCCCOc1ccc(C(=O)CC(C)C)c(O)c1C [Compound 50, 3-{4-[3-Hydroxy-2-methyl-4-(3-methylbutanoyl)phenoxy]butoxy}-4-methoxybenzoic acid]
- AUC(0→t) [4]: 466.2 ± 105.2 (μmol/L) min
- F, oral bioavailability [4]: 60.4%
- Tmax [4]: 1.6 h
- Cmax [4]: 1.05 µM
- AUC(0→t) [6]: 77.2 ± 8.0 (μmol/L)*min
- Cmax [6]: 2.15 ± 0.14 µM
- Vd [6]: 2.87 ± 0.6 L/kg

Compound: CCCC(=O)c1ccc(OCCCCOc2ccc(C(=O)O)cc2OC)c(C)c1O [compound 67]
- General activity at mGlu1 (mGlu1): Antagonist
- General activity at mGlu4 (mGlu4): Antagonist
- General activity at mGlu7 (mGlu7): inactive^b
- General activity at mGlu5 (mGlu5): inactive^b
- General activity at mGlu6 (mGlu6): inactive^b
- General activity at mGlu8 (mGlu8): inactive^b

Compound: COC(=O)c1ccc(OCc2cccc(COc3ccc(C(=O)CC4CCCC4)c(C)c3C)c2)cc1 [compound 155]
- EC50 (mGlu3 [5]): > 30 µM
- EC50 (mGlu2): > 30 µM

- Emax (mGlu3 [5]): 103 ± 1.7%
- Emax (mGlu2): 105 ± 2.1%
Compound: Cc1c(OCc2cccc(-c3cccc(C(=O)NS(C)(=O)=O)c3)c2)ccc(C(=O)CC(C)(C)C)c1O [compound 156, 3′-((4-(3,3-Dimethylbutanoyl)-3-hydroxy-2-methylphenoxy)methyl)-N-(methylsulfonyl)-[1,1′-biphenyl]-3-carboxamide]

- Emax (mGlu3 [5]): 105 ± 2.8%
- Emax (mGlu2): 111 ± 6.6%
Compound: Cc1c(OCc2cccc(-c3cccc(-c4noc(=O)[nH]4)c3)c2)ccc(C(=O)CC(C)(C)C)c1O [compound 157, 3-(3′-((4-(3,3-Dimethylbutanoyl)-3-hydroxy-2-methylphenoxy)methyl)-[1,1′-biphenyl]-3-yl)-1,2,4-oxadiazol-5(4H)-one]

Compound: Cc1c(OCc2ccc(-c3cccc(C(=O)O)c3)o2)ccc(C(=O)CC(C)(C)C)c1O [compound 158, 3-(5-((4-(3,3-Dimethylbutanoyl)-3-hydroxy-2-methylphenoxy)methyl)furan-2-yl)benzoic acid]
- EC50 (mGlu3 [5]): 0.421 ± 0.005 µM
- Emax (mGlu3 [5]): 110 ± 3.9%
- EC50 (mGlu2): 0.328 µM
- Emax (mGlu2): 106 ± 3.8%

Compound: Cc1c(OCc2cccc(-c3cccc(C(=O)O)c3)n2)ccc(C(=O)CC(C)(C)C)c1O [compound 159, 3-(6-((4-(3,3-Dimethylbutanoyl)-3-hydroxy-2-methylphenoxy)methyl)pyridin-2-yl)benzoic acid]
- EC50 (mGlu3 [5]): 0.967 ± 0.008 µM
- Emax (mGlu3 [5]): 115 ± 2.1%
- EC50 (mGlu2): 0.929 ± 0.012 µM
- Emax (mGlu2): 104 ± 2.5%

Compound: Cc1c(OCc2ncc(-c3cccc(C(=O)O)c3)s2)ccc(C(=O)CC(C)(C)C)c1O [compound 161, 3-(2-((4-(3,3-Dimethylbutanoyl)-3-hydroxy-2-methylphenoxy)methyl)thiazol-5-yl)benzoic acid]
- EC50 (mGlu3 [5]): 3.19 ± 0.068 µM
- Emax (mGlu3 [5]): 114 ± 3.9%
- EC50 (mGlu2): 1.878 ± 0.017 µM
- Emax (mGlu2): 98.2 ± 5.2%

- Emax (mGlu3 [5]): 106 ± 6.4%
- Emax (mGlu2): 102 ± 3.5%
Compound: Cc1c(OCc2cc(-c3cccc(C(=O)O)c3)cs2)ccc(C(=O)CC(C)(C)C)c1O [compound 162, 3-(5-((4-(3,3-Dimethylbutanoyl)-3-hydroxy-2-methylphenoxy)methyl)thiophen-3-yl)benzoic acid]

Compound: Cc1c(OCc2cnc(-c3cccc(C(=O)O)c3)cn2)ccc(C(=O)CC(C)(C)C)c1O [compound 163, 3-(5-((4-(3,3-Dimethylbutanoyl)-3-hydroxy-2-methylphenoxy)methyl)pyrazin-2-yl)benzoic acid]
- EC50 (mGlu3 [5]): 0.268 ± 0.005 µM
- Emax (mGlu3 [5]): 113 ± 5.4%
- EC50 (mGlu2): 1.45 ± 0.015 µM
- Emax (mGlu2): 105 ± 1.6%

- Emax (mGlu3 [5]): 103 ± 1.9%
- Emax (mGlu2): 101 ± 2.8%
Compound: Cc1c(OCc2cccc(-c3cccc(S(=O)(=O)O)c3)c2)ccc(C(=O)CC(C)(C)C)c1O [compound 164, 3′-((4-(3,3-Dimethylbutanoyl)-3-hydroxy-2-methylphenoxy)methyl)-[1,1′-biphenyl]-3-sulfonic acid]

Compound: Cc1c(OCc2nnc(-c3cccc(C(=O)O)c3)s2)ccc(C(=O)CC(C)(C)C)c1O [compound 165, 3-(5-((4-(3,3-Dimethylbutanoyl)-3-hydroxy-2-methylphenoxy)methyl)-1,3,4-thiadiazol-2-yl)benzoic acid]
- EC50 (mGlu3 [5]): 1.41 ± 0.034 µM
- Emax (mGlu3 [5]): 95 ± 2.5%
- EC50 (mGlu2): 1.658 ± 0.008 µM
- Emax (mGlu2): 85.6 ± 1.3%

Compound: Cc1c(OCc2cccc(-c3ccc(Cl)c(C(=O)O)c3)c2)ccc(C(=O)CC(C)C)c1O [compound 169]
- mGlu3 PAM Max (mGlu3 [5]): 76.1 ± 5.1%
- EC50 (mGlu3 [5]): 2.99 ± 0.359 µM
- mGlu2 PAM Max (mGlu2): 77.6 ± 1.8%
- EC50 (mGlu2): 0.278 ± 0.049 µM

Compound: Cc1c(OCc2cccc(-c3ccc(Cl)c(C(=O)O)c3)c2)ccc(C(=O)CC(C)C)c1C [compound 170]
- EC50 (mGlu3 [5]): > 30 µM
- mGlu2 PAM Max (mGlu2): 70.2 ± 2.9%
- EC50 (mGlu2): 0.815 ± 0.05 µM

Compound: Cc1c(OCc2cccc(-c3ccc(Cl)c(C(=O)O)c3)c2)ccc(C(=O)CC2CCCC2)c1C [compound 171]
- mGlu3 PAM Max (mGlu3 [5]): 10.7 ± 1.0%
- EC50 (mGlu3 [5]): > 30 µM
- mGlu2 PAM Max (mGlu2): 12.3 ± 1.2%
- EC50 (mGlu2): > 30 µM

Compound: Cc1c(OCc2cccc(-c3ccc(Cl)c(C(=O)O)c3)c2)ccc(C(=O)CC(C)C)c1O [compound 172]
- EC50 (mGlu3 [5]): > 10 µM
- mGlu2 PAM Max (mGlu2): 73.7 ± 1.2%
- EC50 (mGlu2): 0.763 ± 0.04 µM
